{"source": "patent US10508126B2", "about": "“Bisphosphonates vinylic monomers and polymers and uses thereof” (BAR-ILAN UNIVERSITY, priority 2012, dated 2019)", "test": "Inhibition of HAP dissolution (calcium in supernatant by ICP)", "assay_type": "physicochemical", "settings": "compound 1 mM; supersaturated calcium phosphate, 0.05 M Tris pH 7.4, 37° C., 24 h", "procedure": "The test based on a slightly modified method of Francis et al. (Francis, M. D. The inhibition of calcium hydroxyapatite crystal growth by polyphosphonates and polyphosphates. Calcif Tissue Res 1969, 3, 151-162). The extent of HAP formation in the presence of inhibitors was studied in supersaturated calcium phosphate solutions.\nThe final concentration of calcium (CaCl2.2H2O) and phosphate (K2HPO4) ions in the incubation solutions was 3.87 mM and 2.32 mM, respectively, yielding a molar ratio of [Ca]/[PO4]=1.67, as in hydroxyapatite (HAP). Each salt solution was prepared in 0.05 M Tris buffer, pH 7.4. The tested BP compound (1 mM) was dissolved in […]. 5 ml of 7.74 mM CaCl2.2H2O solution containing the BP compound and 5 ml of the 4.64 mM K2HPO4 were mixed in borosilicate glass vials (acid and acetone washed). The vials were then placed in a shaker at 37° C. for 24 h. The vials contents were centrifuged (4 min, 4000 rpm) and the supernatants were then separated and analyzed for calcium concentration by ICP Analysis.", "data": [{"smiles": "C=Cc1ccc(C(O)(P(=O)([O-])[O-])P(=O)([O-])O)cc1.[Na+].[Na+].[Na+]", "note": "[St-BP monomer, Trisodium hydroxyl (4-vinylphenyl) methelenebisphosphonic acid]", "values": [{"measurement": "Calcium ions concentration in filtrate (% of initial concentration)", "result": "45 % of initial concentration"}]}]}
